From PMC9785311, “Effect of Structural Differences in Naringenin, Prenylated Naringenin, and Their Derivatives on the Anti-Influenza Virus Activity and Cellular Uptake of Their Flavanones” (Pharmaceuticals, 2022) come the findings set out here.

For series [1], the system named is influenza virus A/PR/8/34. The experiment in a line: microbe, parasite or virus in culture. Format: cell-based, Type A influenza virus H1N1 (PR/8/34). The conditions noted are these: for SI (Selectivity index = CC50/IC50): CC50 50% cytotoxicity concentration in MDCK cells (MTT), IC50 against A/PR/8/34.
In series [2] the test system is MDCK cells. Nature of the series: Intracellular distribution by fluorescence microscopy of fixed cells. It is filed as cell-based, canine. The conditions noted are these: 30 μM, 180 min exposure, fixed with 4% paraformaldehyde, DAPI. As for the experimental part:
Cells cultured on glass plates were exposed to a concentration of 30 μM for 180 min. The exposed cells were washed with PBS and the compounds were removed from the medium. The cells were then fixed with 4% paraformaldehyde and observed under a fluorescence microscope. […] The amount of naringenin taken up by the cells may be small. Moreover, fluorescence was detected for prenylated naringenin.
Figure 4 Analysis of prenylated naringenin and naringenin fluorescence distribution by imaging. After removing the medium, cells were treated with 30 μM compound for 180 min and fixed with 4% paraformaldehyde. Fixed cells were stained with DAPI (blue). These images show fluorescence of 8-prenylnaringenin (8-PN; A), 6-prenylnaringenin (6-PN; B), and naringenin (C). Scale bars = 50 μm.
Cells were cultured on glass plates and incubated in a medium supplemented with the compound for 180 min. They were then washed and fixed with 4% paraformaldehyde for 30 min. After washing with PBS, DAPI staining was performed. Intracellular distribution was photographed and observed using an inverted fluorescence phase-contrast microscope (BZ-X800, Keyence, Osaka, Japan).

Series [3] relates to MDCK cells. The experiment in a line: Efflux of prenylated naringenin after intracellular saturation. The following applies: for Release of intracellular compound from the cell: after 180 min exposure, compound-free DMEM containing 1% FBS, 0-240 min; for Fluorescence intensity change after 120 min culture in compound-free medium compared to 0 min: cells saturated by 180 min exposure, then DMEM containing 1% FBS for 120 min. It is filed as cell-based, canine. As for the experimental part:
Based on our results, we examined the kinetics of intracellular prenylated naringenin in Dulbecco’s Modified Eagle Medium (DMEM) containing 1% fetal bovine serum (FBS). […] The intracellular kinetics changed greatly depending on the position of the prenyl group. After 120 min of culturing in the medium, the fluorescence intensity of 8-PN and 6-PN increased approximately 1.6-fold and 9.4-fold, respectively, compared to that at 0 min (Figure 6).
Figure 5 Efflux of prenylated naringenin after intracellular saturation. The amount of the compound in the cells was saturated by exposure for 180 min, and the cells were cultured in Dulbecco’s Modified Eagle Medium (DMEM) for 0, 120, and 240 min. After removing the medium, cells were fixed with 4% paraformaldehyde and stained with DAPI (blue). These images show 8-PN (A) and 6-PN (B) fluorescence. Scale bars = 50 μm.
Figure 6 Efflux and fluorescence intensity of intracellular prenylated naringenins. Fluorescence intensity of 8-PN and 6-PN from Figure 5. The standard deviation bars are indicated on each bar graph. *** p < 0.001.

The subject of series [4] is influenza virus A/PR/8/34. Nature of the series: Time-of-addition assay. Format: cell-based, Type A influenza virus H1N1 (PR/8/34). The following applies: 30 μM, MOI 0.01. The text has this: We performed a time-of-addition assay to verify the effect of the prenyl group position on viral growth inhibition. Figure 7A,B show virus viability when exposed to each prenylated naringenin for each time duration. […] In previous studies, inhibitory effects differed depending on the flavonoid backbone. The anti-influenza virus effect depends on the position of the prenyl group, which is a novel observation of the present study.
Figure 7 Effect of prenylated naringenin on virus viability. (A) 8-PN and 6-PN (30 μM). (B) Schedule of the experiment. Cells were infected with influenza virus A/PR/8/34 at a multiplicity of infection of 0.01 in 24-well plates. After infection at each time point, the cells were harvested and viruses were assayed using a focus-forming reduction assay. […] Data are representative of three independent experiments. Standard deviation bars indicate each bar graph (*** p < 0.001, ** p < 0.01).
We conducted a time-of-addition assay as previously described. DMEM containing prenylated naringenin (30 μM) was added at −1–0 h (adsorption), 0–8 h (replication), 0–4 h, 0–2 h, 2–4 h, 4–8 h, 4–6 h, and 6–8 h. Furuta et al. estimated the intracellular cycle of infected cells before extracellular budding to be 8 h, and growth stages were assumed to occur at 2 h intervals.

For series [5], the system named is MDCK cells. Nature of the series: Cellular uptake by fluorescence microscopy. The conditions noted are these: 30 μM compound, phenol red-free medium, 60-360 min, about 20 cells per time point.
The mark [6] stands for this setting: A/PR/8/34 strain in MDCK cells, mean ± SD of three independent experiments, ND = not detected.

Where two headings read alike, the source gives them in different places.

What is called IC50 is the midpoint of a concentration-inhibition curve. Regarding `C=CCc1c(O)cc2c(c1O)C(=O)C[C@@H](c1ccc(O)cc1)O2` (racemic) [2a, 6-allylnaringenin], the IC50 entry in series [1] (setting [6]) is “weaker activities than 6-PN”; in series [1] (PR/8, MDCK), 103 ± 3.8 µM. In addition, the “SI (Selectivity index = CC50/IC50)” value in series [1] was 0.8.
A word on the melting point: it is the temperature, or range, at which the solid turns liquid. For `CC1(C)OC1Cc1c(O)cc(O)c2c1OC(c1ccc(O)cc1)CC2=O` (stereo not drawn) [1a], the melting point is 191.5 to 193 °C. Also, the “SI (Selectivity index = CC50/IC50)” value in series [1] worked out at 2.7. The 50% inhibitory concentration (IC50) in series [1] (PR/8, MDCK) was determined as 59 ± 9 µM.
`C=C(C)C(Cc1c(O)cc(O)c2c1OC(c1ccc(O)cc1)CC2=O)OC(C)=O` (stereo not drawn) [1b] gave a melting point of 189 to 191.5 °C. Also, in series [1] (setting [6]), the IC50 result was “lost and not active”.
Consider `CC(=O)Oc1ccc(C2CC(=O)c3c(O)cc(OC(C)=O)c(CCC(C)C)c3O2)cc1` (stereo not drawn) [1c], for which the “SI (Selectivity index = CC50/IC50)” value in series [1] is listed as 6.3. Also, the IC50 in series [1] (PR/8, MDCK) turned out to be 42 ± 2.1 µM.
On to `CC(C)CCc1c(O)cc(O)c2c1OC(c1ccc(O)cc1)CC2=O` (stereo not drawn) [1d], for which the “SI (Selectivity index = CC50/IC50)” value in series [1] amounted to 3.0. For the same compound, the IC50 in series [1] (PR/8, MDCK) amounted to 61 ± 14 µM.
Consider `CC(=O)OC(Cc1c(O)cc(O)c2c1OC(c1ccc(O)cc1)CC2=O)C(C)C` (stereo not drawn) [1e], for which the melting point was in the range of 155 to 156 °C. Besides, in series [1] (setting [6]), the concentration for half-maximal inhibition (IC50) entry is “lost and not active”.
For `CC(C)CCc1c(O)cc2c(c1O)C(=O)CC(c1ccc(O)cc1)O2` (stereo not drawn) [2b], the IC50 entry in series [1] (setting [6]) was “weaker activities than 6-PN”; in series [1] (PR/8, MDCK), 58 ± 15.2 µM. Further, in series [1], the “SI (Selectivity index = CC50/IC50)” value was found to be 1.3.
For the compound `O=C1CC(c2ccc(O)cc2)Oc2cc(O)c(CC=C3CCCCC3)c(O)c21` (stereo not drawn) [2c], the melting point was 204.4 to 205.2 °C. In addition, in series [1] (setting [6]), the IC50 result is reported as “not detected”.
The compound `O=C1CC(c2ccc(O)cc2)Oc2cc(O)c(CCC3CCCCC3)c(O)c21` (stereo not drawn) [2d] yielded a melting point of 213.3 to 215.3 °C. The IC50 entry in series [1] (setting [6]) is reported as “not detected”.
On to `CC(C)=CCc1c(O)cc2c(c1O)C(=O)C[C@@H](c1ccc(O)cc1)O2` [6-PN, 6-prenylnaringenin], for which the “SI (Selectivity index = CC50/IC50)” value in series [1] came to 5.5. The compound further showed an IC50 in series [1] (PR/8, MDCK) of 38 ± 4.7 µM. For the same compound, the “Intracellular distribution of fluorescence” value in series [2] is reported as “localize to the cytoplasmic periphery”. In series [3], the “Release of intracellular compound from the cell” value is “released relatively quickly” and the “Fluorescence intensity change after 120 min culture in compound-free medium compared to 0 min” value is on record as around 9.4 fold. Also, in series [4], the “Inhibition of virus growth, 2 h exposure (4–6 h after infection)” value is “high inhibition tendency” and the “Inhibition of virus growth, late stage (6–8 h)” value was “block the late stage of viral growth”. In addition, the “Fluorescence intensity (intracellular uptake)” value in series [5] was “high fluorescence intensity”.
Turning to `CC(C)=CCc1c(O)cc(O)c2c1O[C@H](c1ccc(O)cc1)CC2=O` [8-PN, 8-prenylnaringenin], the “SI (Selectivity index = CC50/IC50)” value in series [1] is given as 4.9. This compound also came in with a half-maximal inhibitory concentration (IC50) in series [1] (PR/8, MDCK) of 24 ± 0.6 µM. Also, the “Intracellular distribution of fluorescence” value in series [2] was “distributed mostly in the cytoplasm and nucleus”. In addition, in series [3], the “Release of intracellular compound from the cell” value is reported as “released from the cell slowly” and the “Fluorescence intensity change after 120 min culture in compound-free medium compared to 0 min” value is on record as “approximately 1.6 fold”. Also, in series [4], the “Inhibition of virus growth, exposure during virus adsorption period (−1–0 h)” value is “high inhibitory effect” and the “Inhibition of virus growth, late stage (6–8 h)” value is listed as “block the late stage of viral growth”. The “Fluorescence intensity (intracellular uptake)” value in series [5] is listed as “high fluorescence intensity”.
As to `CC(=O)Oc1ccc(C2CC(=O)c3c(O)cc(OC(C)=O)cc3O2)cc1` (stereo not drawn) [Naringenin-4′,7′-diacetate], the IC50 result in series [1] (A/PR/8/34 strain in MDCK cells, mean ± SD of three independent experiments, ND = not detected, listed as naringenin-4′,7-diacetate) was “markedly lost its anti-influenza activity”; in series [1] (A/PR/8/34 strain in MDCK cells, mean ± SD of three independent experiments, ND = not detected, listed as naringenin-4′,7′-diacetate), “lost its activity”.
Regarding `CCC(CC)O[C@@H]1C=C(C(=O)O)C[C@H](N)[C@H]1NC(C)=O` [oseltamivir acid, reference compound], in series [1] (PR/8, MDCK), the IC50 stood at 0.002 µM.
With (±)-Naringenin [reference compound], in series [1] (A/PR/8/34 strain in MDCK cells, mean ± SD of three independent experiments, ND = not detected, read-out: IC50), the IC50 stood at 290 ± 16.2 µM. The “SI (Selectivity index = CC50/IC50)” value in series [1] is recorded as 4.9.
